Assay results published in US11666570B2, “Diagnosis and regulation of epidermal differentiation and cancer cell activity” (The Board of Trustees of the Leland Stanford Junior …, priority 2019, dated 2023).
Residues, ends and D or L forms follow the SMILES beside them. *: point of attachment. Cbz = O=C(OCc1ccccc1)*

Key:
Type in all cases: cell-based
[1] = tested on: RET; assay: RET expression in normal human skin organoids treated with proteasome inhibitor (Western blot); conditions: normal skin organoids grown 3 days on dermis, MG132 20 μM for 12 hrs vs DMSO
Text: Given the proximity of CacyBP and RET, we wondered whether RET stability in the skin might be regulated by ubiquitination. Fluorescent PLA signal generated by RET and ubiquitin proximity was abolished in MAB21L4-ablated epidermis using two independent sgRNAs (FIG. 5f,g). […] Loss of MAB21L4, such as occurs in cancer, would stabilize RET by preventing its Siah1-mediated degradation and may explain RET upregulation in SCC.
(§1) Human Skin Organoids and Skin Xenografts Generation of human skin organoids was performed as previously described. Briefly, 1×10^6 keratinocytes were seeded onto a 1 cm^2 section of devitalized human dermis and cultured at the air-liquid interface for up to 6 days for differentiation studies. To generate organotypic invasive epidermal neoplasia, devitalized human dermis was populated with human primary fibroblasts at least 1 week prior to keratinocyte seeding. Keratinocytes were transduced with oncogenic HRas as well as Cdk4 and seeded onto fibroblast-containing dermis. Neoplastic tissues were harvested for analysis up to 14 days post-seeding.
Western Blotting Cells and organoids were both lysed in RIPA buffer (Thermo Fisher Scientific) supplemented with phosphatase inhibitor and protease inhibitor cocktails (Sigma-Aldrich). […]

[2] = target: T1, RET (Homo sapiens, UniProt P07949); assay: RET phosphorylation at Y1062 in non-transformed human skin organoids (Western blot); conditions: non-transformed human skin organoids grown 7 days on dermis, BLU-667 15 nM vs DMSO
T1 construct: endogenous in cells; host or cells: human skin organoids from primary human keratinocytes seeded on devitalized human dermis
Text: (§2) As loss of differentiation may be coupled to other cancer-enabling behaviors, we next considered the therapeutic implications of aberrant RET activation in SCC. […] We next used MAB21L4-intact or MAB21L4-ablated primary human keratinocytes to generate skin organoids programmed to undergo invasive neoplasia by oncogenic Ras and Cdk4. These neoplastic tissues were maintained in culture medium containing BLU-667 to investigate the contribution of RET to SCC development.
as §1, with “Briefly, 1×10^6 keratinocytes were seeded onto a 1 cm^2 section of devitalized human dermis and cultured at the air-liquid interface for up to 6 days for differentiation studies.” left out
Western Blotting Cells and organoids were both lysed in RIPA buffer (Thermo Fisher Scientific) supplemented with phosphatase inhibitor and protease inhibitor cocktails (Sigma-Aldrich). For human skin organoids, the epidermis was separated from the dermis, immersed in RIPA buffer, and subjected to 4 cycles of disruption using the gentleMACS Dissociator (Miltenyi Biotec). […]

[3] = tested on: human skin organoids; assay: Stratification and epidermal thickness of organotypic human epidermis under BLU-667 (immunofluorescence); conditions: vs vehicle (DMSO)
Text: as §2
(§3) To test this, we assessed neoplastic invasion in human skin organoids with BLU-667 added to the culture medium after early malignant transformation occurred. […] Human skin tissues undergoing malignant transformation by enforced expression of oncogenic Ras and Cdk4 were then subjected to BLU-667 treatment following the onset of early neoplastic invasion.
as §1, with “Neoplastic tissues were harvested for analysis up to 14 days post-seeding.” left out

[4] = tested on: oncogenic Ras-transformed human skin organoids; assay: Neoplastic invasion in human skin organoids transformed by oncogenic Ras and Cdk4
Text: as §2, §3, §1
Immunofluorescence Human skin organoids were embedded in Optimal Cutting Temperature (OCT) compound (Sakura Finetek) and 7 μm tissue sections were mounted onto polylysine slides (Thermo Scientific). Tissue cryosections were fixed in 100% methanol at −20° C. for 10 min and subsequently permeabilized by incubation with 0.1% Triton X-100 (Sigma-Aldrich) in PBS. The tissues were then incubated for 30 minutes at room temperature with blocking buffer (horse serum diluted 1:10 in PBS) and then for 1 hour with primary antibodies diluted in 0.05% Triton X-100 (Sigma-Aldrich) and 1:100 horse serum in PBS. […]
Images of several zstacks were acquired and the maximum intensity projection image was generated by using the Fiji-ImageJ package. Invasion index was calculated as integrated density of the Keratin 5 staining underneath the basement membrane divided by the length of the basement membrane. Integrated density and basement membrane length were both analyzed using the Fiji-ImageJ package. The invasion depth was calculated as the distance between the basement membrane and the most distant invading cell in each field of view analyzed. The distance between the basement membrane and the most distant invading cell was analyzed in 3 areas of each field of view using the Fiji-ImageJ package and was averaged. […]

[5] = MAB21L4-intact or MAB21L4-ablated Ras/Cdk4 organoids, 7 days in medium containing BLU-667 15 nM
[6] = Ras/Cdk4 organoids, BLU-667 15 nM initiated on day 7 after early invasion, analysed day 14, vs vehicle

T1 sequence (P07949 29-1114): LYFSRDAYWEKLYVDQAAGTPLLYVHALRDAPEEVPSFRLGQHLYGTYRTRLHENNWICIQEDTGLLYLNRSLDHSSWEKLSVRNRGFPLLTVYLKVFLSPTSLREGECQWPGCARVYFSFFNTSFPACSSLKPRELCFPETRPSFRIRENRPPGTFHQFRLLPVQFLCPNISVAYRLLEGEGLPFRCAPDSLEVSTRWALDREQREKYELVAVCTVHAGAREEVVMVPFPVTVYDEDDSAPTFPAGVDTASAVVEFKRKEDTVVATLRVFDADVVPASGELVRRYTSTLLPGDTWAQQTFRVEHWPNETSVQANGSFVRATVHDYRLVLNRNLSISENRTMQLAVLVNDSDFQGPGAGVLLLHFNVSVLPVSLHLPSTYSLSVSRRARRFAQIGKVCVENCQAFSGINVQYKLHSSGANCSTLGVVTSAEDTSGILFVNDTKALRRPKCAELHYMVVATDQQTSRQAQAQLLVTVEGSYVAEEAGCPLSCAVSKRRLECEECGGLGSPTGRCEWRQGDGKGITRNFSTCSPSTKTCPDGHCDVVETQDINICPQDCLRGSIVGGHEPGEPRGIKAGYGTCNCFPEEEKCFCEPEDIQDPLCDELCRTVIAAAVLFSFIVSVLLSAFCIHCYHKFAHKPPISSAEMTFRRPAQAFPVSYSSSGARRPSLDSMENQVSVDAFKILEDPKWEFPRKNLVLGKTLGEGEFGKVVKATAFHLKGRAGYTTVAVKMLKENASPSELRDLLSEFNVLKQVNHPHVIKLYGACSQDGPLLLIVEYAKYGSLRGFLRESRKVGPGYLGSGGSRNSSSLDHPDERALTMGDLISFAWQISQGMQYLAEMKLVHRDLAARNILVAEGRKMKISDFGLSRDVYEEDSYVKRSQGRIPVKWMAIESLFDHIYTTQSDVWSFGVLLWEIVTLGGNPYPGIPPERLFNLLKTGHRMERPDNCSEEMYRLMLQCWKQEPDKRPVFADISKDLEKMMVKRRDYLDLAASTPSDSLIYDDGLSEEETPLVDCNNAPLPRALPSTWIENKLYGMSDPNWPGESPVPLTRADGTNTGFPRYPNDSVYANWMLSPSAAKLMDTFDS

## CC(C)C[C@@H](C=O)NC(=O)[C@H](CC(C)C)NC(=O)[C@H](CC(C)C)NC(=O)OCc1ccccc1 [MG132] (Cbz-Leu-Leu-Leu-aldehyde)
[1]
  RET expression: RET accumulation

## CO[C@]1(C(=O)N[C@@H](C)c2ccc(-n3cc(F)cn3)nc2)CC[C@H](c2nc(C)cc(Nc3cc(C)[nH]n3)n2)CC1 [BLU-667]
[2]
  RET phosphorylation at Y1062 (suppression of RET signaling): reduction in RET phosphorylation at Y1062
[3]; late-onset treatment: BLU-667 15 nM initiated on day 7, 14 days of growth
  epidermal stratification and thickness: did not adversely affect epidermal stratification and thickness
[3]; organoids cultured in continuous presence of BLU-667 15 nM, 7 days
  stratification and epidermal thickness: did not differ substantially from vehicle controls
[4]; [5]
  basement membrane degradation: prevented basement membrane degradation
  neoplastic invasion (invasion index): suppressed invasion accelerated by MAB21L4 loss
[4]; [6]
  keratinocytes below the basement membrane (invasion index), established invasion: fewer keratinocytes below the basement membrane
  tumor infiltration depth (invasion depth), established invasion: reduction in tumor infiltration depth
